Measured values taken from patent US5041567A, “Antibacterial monic acid derivatives” (Beecham Group plc, priority 1982, dated 1991).
Values after ≈ are worked out from the molar mass of the structure shown. Read-outs that look alike come from different tables or passages of the source.

What was measured:
Strep. pneumoniae CN33 = assay: MIC against human bacteria in vitro; assay type: cell-based; conditions: Streptococcus pneumoniae
M. suipneumoniae LABER = assay: MIC against mycoplasma in vitro; assay type: cell-based; conditions: Mesomycoplasma hyopneumoniae, 144 h
M. gallisepticum S6 = assay: MIC against mycoplasma in vitro; assay type: cell-based; conditions: Mycoplasmoides gallisepticum, 144 h; M. gallisepticum S6; 6 days, 37° C.; read-out: MIC
Staph. aureus Oxford = assay: MIC against veterinary bacteria in vitro; conditions: Staphylococcus aureus, 18 h
Protocol: (§1) The activity of the compounds of the Examples against various veterinarily important bacteria, was assayed in vitro using two-fold serial dilutions in Diagnostic Sensitivity Test Agar inoculated with 10^4 organisms.

[1] = tested on: M. suipneumoniae NCTC 10110; assay: MIC against mycoplasma in vitro; assay type: cell-based; conditions: Mesomycoplasma hyopneumoniae, NCTC10110, 144 h
M. bovis NCTC 10131 = assay: microbe, parasite or virus in culture; assay type: cell-based; conditions: NCTC10131, 144 h
Strep. dysgalactiae SPD1 = assay: MIC against veterinary bacteria in vitro; conditions: Streptococcus dysgalactiae, SPD1, 18 h
Protocol: as §1

E. coli NCTC 10418 [2] = assay: MIC against human bacteria in vitro; assay type: cell-based; conditions: Escherichia coli
Past. multocida PA2 = assay: MIC against veterinary bacteria in vitro; conditions: Pasteurella multocida, PA2, 18 h
Protocol: as §1

E. coli NCTC 10418 [3] = assay: MIC against veterinary bacteria in vitro; conditions: Escherichia coli, NCTC10418, 18 h
Protocol: as §1

M. hyorhinis ATCC 23234 = assay: MIC against mycoplasma in vitro; assay type: cell-based; conditions: Mesomycoplasma hyorhinis, ATCC23234, 144 h
[4] = tested on: Staph. aureus 152 (pen. sens); assay: MIC against veterinary bacteria in vitro; conditions: Staphylococcus aureus, 18 h
Protocol: as §1

[5] = tested on: Erysipelothrix rhusiopathiae NCTC 8163; assay: MIC against veterinary bacteria in vitro; conditions: Erysipelothrix rhusiopathiae, NCTC8163, 18 h
Protocol: as §1

S. typhimurium S18 = assay: MIC against veterinary bacteria in vitro; conditions: Salmonella enterica, TYPHIMURIUM, 18 h
Protocol: as §1

M. suipneumoniae HK(2) = assay: MIC against mycoplasma in vitro; assay type: cell-based; conditions: Mesomycoplasma hyopneumoniae, 144 h
Bord. bronchiseptica B08 = assay: MIC against veterinary bacteria in vitro; conditions: Bordetella bronchiseptica, B08, 18 h
Protocol: as §1

Bord. bronchiseptica B09 = assay: MIC against veterinary bacteria in vitro; conditions: Bordetella bronchiseptica, B09, 18 h
Protocol: as §1

Past. haemolytica PA5 = assay: MIC against veterinary bacteria in vitro; conditions: Mannheimia haemolytica, PA5, 18 h
Protocol: as §1

E. coli E1 = assay: MIC against veterinary bacteria in vitro; conditions: Escherichia coli, E1, 18 h
Protocol: as §1

[6] = tested on: M. suipneumoniae PW/C/210; assay: MIC against mycoplasma in vitro; assay type: cell-based; conditions: Mesomycoplasma hyopneumoniae, 144 h
[7] = tested on: Haemophilus influenzae Q1; assay: MIC against human bacteria in vitro; assay type: cell-based; conditions: Haemophilus influenzae Q1; 5% chocolated horse blood agar, 18 hours; read-out: MIC
M. suipneumoniae UCD 1 = assay: MIC against mycoplasma in vitro; assay type: cell-based; conditions: Mesomycoplasma hyopneumoniae, UCD1, 144 h
M. pneumoniae ATCC 15492 = assay: MIC against mycoplasma in vitro; assay type: cell-based; conditions: Mycoplasmoides pneumoniae, ATCC15492, 144 h
[8] = Strep. pneumoniae CN33, 5% chocolated horse blood agar, 18 hours, read-out: MIC
[9] = NCTC10418, E. coli NCTC 10418, agar with 5% chocolated horse blood, 18 hours, 37° C., read-out: MIC
[10] = M. suipneumoniae LABER, 6 days, 37° C., read-out: MIC
[11] = M. suipneumoniae NCTC 10110, 6 days, 37° C., read-out: MIC
[12] = M. hyorhinis ATCC 23234, 6 days, 37° C., read-out: MIC
[13] = M. pneumoniae ATCC 15492, 6 days, 37° C., read-out: MIC
[14] = M. suipneumoniae HK(2), 6 days, 37° C., read-out: MIC
[15] = M. suipneumoniae PW/C/210, 6 days, 37° C., read-out: MIC
[16] = M. suipneumoniae UCD 1, 6 days, 37° C., read-out: MIC

Row | SMILES | MIC (Strep. pneumoniae CN33; [8]) [µg/mL] | MIC (M. gallisepticum S6) [µg/mL] | MIC (Staph. aureus Oxford) [µg/mL] | MIC [1] [µg/mL] | MIC (M. bovis NCTC 10131) [µg/mL] | MIC (Strep. dysgalactiae SPD1) [µg/mL] | MIC (E. coli NCTC 10418 [2]; [9]) [µg/mL] | MIC (Past. multocida PA2) [µg/mL] | MIC (E. coli NCTC 10418 [3]) [µg/mL] | MIC [4] [µg/mL] | MIC [5] [µg/mL] | MIC (S. typhimurium S18) [µg/mL] | MIC (Bord. bronchiseptica B08) [µg/mL] | MIC (Bord. bronchiseptica B09) [µg/mL] | MIC (Past. haemolytica PA5) [µg/mL] | MIC (E. coli E1) [µg/mL] | MIC [7] [µg/mL] | MIC (M. suipneumoniae UCD 1) [µg/mL] | MIC (M. suipneumoniae LABER; [10]) [µg/mL] | MIC (M. hyorhinis ATCC 23234; [12]) [µg/mL] | also measured
1 | COc1ccc(-c2cnc(/C=C(\C)C[C@@H]3OC[C@H](C[C@@H]4O[C@H]4[C@@H](C)[C@H](C)O)[C@@H](O)[C@H]3O)o2)cc1 [Example 4, 5-p-methoxyphenyl-2-(1-normon-2-yl)oxazole A] | 5 (≈ 10.6 µM) | 2.5 (≈ 5.28 µM) | 0.625 (≈ 1.32 µM) | 1 (≈ 2.11 µM) | 0.025 (≈ 0.0528 µM) | 1.25 (≈ 2.64 µM) | > 100 | 5 (≈ 10.6 µM) | > 80 | 5 (≈ 10.6 µM) | > 80 | > 80 | > 80 | 20 (≈ 42.2 µM) | 40 (≈ 84.5 µM) | > 80 | 2.5 (≈ 5.28 µM) | 1 (≈ 2.11 µM) |  |  | MIC (M. suipneumoniae LABER): 0.5 µg/mL (≈ 1.06 µM); MIC (M. hyorhinis ATCC 23234): 0.5 µg/mL (≈ 1.06 µM); MIC (M. suipneumoniae HK(2)): 1 µg/mL (≈ 2.11 µM); MIC [6]: 0.5 µg/mL (≈ 1.06 µM)
2 | C/C(=C\c1nc(-c2ccccc2)c(-c2ccccc2)o1)C[C@@H]1OC[C@H](C[C@@H]2O[C@H]2[C@@H](C)[C@H](C)O)[C@@H](O)[C@H]1O [Example 41, 4,5-Diphenyl-2-(1-normon-2-yl)oxazole A] |  | > 10 | 40 (≈ 77 µM) |  | 2.5 (≈ 4.81 µM) | 20 (≈ 38.5 µM) |  | 20 (≈ 38.5 µM) | > 80 | 40 (≈ 77 µM) | > 80 | > 80 | > 80 | > 80 | > 80 | > 80 | 10 (≈ 19.2 µM) |  | > 10 | > 10 | MIC (Strep. pneumoniae CN33; CN33, 18 h): > 100 µg/mL; MIC [1, 11]: > 10 µg/mL; MIC (E. coli NCTC 10418 [2]; NCTC10418, 18 h): > 100 µg/mL; MIC (M. pneumoniae ATCC 15492; [13]): > 10 µg/mL; MIC (M. suipneumoniae HK(2); [14]): > 10 µg/mL; MIC [6, 15]: > 10 µg/mL; MIC (M. suipneumoniae UCD 1; [16]): > 10 µg/mL
3 | C/C(=C/c1ncc(-c2ccccc2)o1)C[C@@H]1OC[C@H](C[C@@H]2O[C@H]2[C@@H](C)[C@H](C)O)[C@@H](O)[C@H]1O [Example 2, 2-{3-[5-(2,3-epoxy-5-hydroxy-4-methylhexyl)-3,4-dihydroxytetrahydropyran-2-yl]-2-methylprop-1(Z)-enyl}-5-phenyloxazole] |  | > 10 | 20 (≈ 45.1 µM) |  | 0.25 (≈ 0.564 µM) | 10 (≈ 22.5 µM) |  | 20 (≈ 45.1 µM) | > 80 | 20 (≈ 45.1 µM) | > 80 | > 80 | > 80 | > 80 | > 80 | > 80 | 12.5 (≈ 28.2 µM) |  | 10 (≈ 22.5 µM) | 10 (≈ 22.5 µM) | MIC (Strep. pneumoniae CN33; CN33, 18 h): > 50 µg/mL; MIC [1, 11]: 10 µg/mL (≈ 22.5 µM); MIC (E. coli NCTC 10418 [2]; NCTC10418, 18 h): > 50 µg/mL; MIC (M. suipneumoniae HK(2); [14]): 10 µg/mL (≈ 22.5 µM); MIC [6, 15]: 5 µg/mL (≈ 11.3 µM); MIC (M. suipneumoniae UCD 1; [16]): 10 µg/mL (≈ 22.5 µM)
4 | C/C(=C\c1ncc(-c2cccc(C#N)c2)o1)C[C@@H]1OC[C@H](C[C@@H]2O[C@H]2[C@@H](C)[C@H](C)O)[C@@H](O)[C@H]1O [Example 5, 5-m-cyanophenyl-2-(1-normon-2-yl)oxazole A] | 2.5 (≈ 5.34 µM) | 0.5 (≈ 1.07 µM) | 0.625 (≈ 1.33 µM) | 0.1 (≈ 0.213 µM) | ≤ 0.01 | 0.312 (≈ 0.666 µM) | > 50 | 2.5 (≈ 5.34 µM) | > 80 | 0.625 (≈ 1.33 µM) | 80 (≈ 171 µM) | > 80 | 80 (≈ 171 µM) | 40 (≈ 85.4 µM) | 40 (≈ 85.4 µM) | > 80 | 1.2 (≈ 2.56 µM) | 0.1 (≈ 0.213 µM) | 0.05 (≈ 0.107 µM) | 0.05 (≈ 0.107 µM) | MIC (M. pneumoniae ATCC 15492): 0.25 µg/mL (≈ 0.534 µM); MIC [6, 15]: 0.05 µg/mL (≈ 0.107 µM)
5 | C/C(=C\c1ncc(-c2cccc([N+](=O)[O-])c2)o1)C[C@@H]1OC[C@H](C[C@@H]2O[C@H]2[C@@H](C)[C@H](C)O)[C@@H](O)[C@H]1O [Example 6, 5-m-nitrophenyl-2-(1-normon-2-yl)oxazole A] | 4 (≈ 8.19 µM) | 1 (≈ 2.05 µM) | 1.25 (≈ 2.56 µM) | 0.05 (≈ 0.102 µM) | 0.025 (≈ 0.0512 µM) | 0.625 (≈ 1.28 µM) | > 128 | 1.25 (≈ 2.56 µM) | > 80 |  | > 80 | > 80 | 80 (≈ 164 µM) | 20 (≈ 40.9 µM) | 80 (≈ 164 µM) | > 80 | 2 (≈ 4.09 µM) | 0.05 (≈ 0.102 µM) |  |  | MIC (M. suipneumoniae LABER): 0.05 µg/mL (≈ 0.102 µM); MIC (M. hyorhinis ATCC 23234): 0.025 µg/mL (≈ 0.0512 µM); MIC (M. pneumoniae ATCC 15492; [13]): 1 µg/mL (≈ 2.05 µM); MIC (M. suipneumoniae HK(2)): 0.05 µg/mL (≈ 0.102 µM); MIC [6]: 0.025 µg/mL (≈ 0.0512 µM)
